Measurements from PubChem BioAssay AID1259321 (Sanford-Burnham Center for Chemical Genomics, 2017).
Active and inactive are the calls of the source.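 How the source made its calls: active means half-maximal concentration for changing protein binding to DNA, from the fitted dose curve, below 10 micromolar; inactive means the rest.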

Target: Nuclear receptor subfamily 1 group D member 1 (Homo sapiens) (UniProt P20393)
Assay: Rev-erbα–DNA interaction modulators – biochemical, FITC-DNA, fluorescence polarization, dose response (AID 1259321)
Conditions: Rev-erb alpha-FITC-DNA binding

Sequence of Nuclear receptor subfamily 1 group D member 1 (Homo sapiens) (P20393 whole entry, looked up): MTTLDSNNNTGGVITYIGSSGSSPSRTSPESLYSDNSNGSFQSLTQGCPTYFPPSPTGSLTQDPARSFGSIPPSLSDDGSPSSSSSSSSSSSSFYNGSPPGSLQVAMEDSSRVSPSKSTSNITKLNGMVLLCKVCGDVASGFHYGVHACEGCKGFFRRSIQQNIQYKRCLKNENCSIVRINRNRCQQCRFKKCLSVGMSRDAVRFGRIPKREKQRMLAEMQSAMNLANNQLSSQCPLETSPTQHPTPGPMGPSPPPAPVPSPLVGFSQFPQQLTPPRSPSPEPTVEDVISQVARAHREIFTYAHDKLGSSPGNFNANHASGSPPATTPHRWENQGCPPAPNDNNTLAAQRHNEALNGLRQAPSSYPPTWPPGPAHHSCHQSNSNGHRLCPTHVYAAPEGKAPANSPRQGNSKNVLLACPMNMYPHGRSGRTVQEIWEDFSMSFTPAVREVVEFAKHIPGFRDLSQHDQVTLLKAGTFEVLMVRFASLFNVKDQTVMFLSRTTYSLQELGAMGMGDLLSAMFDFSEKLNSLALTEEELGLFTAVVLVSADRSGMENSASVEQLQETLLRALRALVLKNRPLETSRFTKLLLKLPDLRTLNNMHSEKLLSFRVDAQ

| Structure (SMILES) | IC50 |
| --- | --- |
| Cc1ccsc1C(=O)Nc1ccc(O)c(-c2nc3ccccc3s2)c1 | 6.87 µM |
| COc1cc(/C=C(\C#N)c2nc3ccccc3o2)ccc1O | 2.91 µM |
| CCc1cc2cc(C(=O)Nc3ccc(F)cc3)sc2s1 | 7.03 µM |
| Cc1ccc(-n2c(N)c(C#N)c(-c3ccccc3)c(C#N)c2=O)cc1 | > 40 µM (inactive) |
| O=C(CCSc1nnc2scc(-c3ccccc3)n12)Nc1nc(-c2ccccc2)ns1 | inactive |
| CCOc1ccc(NC(=O)CCSc2ccc3ccccc3n2)cc1 | 5.15 µM |
| Fc1cccc2sc(Nc3nc4cc5c(cc4s3)OCCO5)nc12 | inactive |
| O=C(OCCN1C(=O)c2cccc3c(N4CCOCC4)ccc(c23)C1=O)c1ccccc1Cl | 8.24 µM |
| CC1(C)Cc2c(sc3c2c(N)nc(=S)n3Cc2ccccc2)CO1 | inactive |
| COc1ccc(NC(=O)NNC(=O)c2cc3ccccc3cc2O)cc1 | 9.78 µM |
| CS(=O)(=O)Nc1ccc(-c2ccc(/C=C3\SC(N)=NC3=O)o2)cc1 | 8.42 µM |
| Cc1nn(-c2ccc(Cl)cc2)c2sc(C(=O)c3c(N)n(C)c(=O)n(C)c3=O)cc12 | 8.34 µM |
| O=C(Nc1ccccc1)c1cc2c(=O)c3ccccc3oc2nc1C(F)(F)F | 6.94 µM |
| O=c1c2ccccc2[nH]c(=S)n1Cc1ccc2c(c1)OCO2 | 2.5 µM |
| Cc1ccc2c3c(c(SCC(=O)Nc4nonc4C)nc2c1)CCCC3 | > 40 µM (inactive) |
| CC(C)(C#N)Cc1cc(CC(C)(C)C#N)cc(C(C)(C)C)c1 | 4.07 µM |
| COc1ccc2c(COC(=O)c3n[nH]c4ccccc34)cc(=O)oc2c1 | > 40 µM (inactive) |
| Cc1ccc(-c2nnc(NCc3nc4ccccc4[nH]3)c3ccccc23)cc1S(=O)(=O)N(C)C | inactive |
| COc1ccccc1-c1nc(SCC(=O)Nc2cc(C)on2)c2c(=O)n(C)c(=O)n(C)c2n1 | 5.36 µM |
| CC1(Cc2ccccc2C#N)C(=O)Nc2ccc(-c3ccccc3)cc21 (centres undefined) | 6.27 µM |
| C=CCN1C(=O)/C(=C2/Sc3ccc(OC)cc3N2C)SC1=NCc1ccccc1 | 6.32 µM |
| O=C(O)CN1C(=O)/C(=C\c2cn(CC(=O)N3CCOCC3)c3ccccc23)SC1=S | 9.92 µM |
| O=C(CSc1nnc(-c2cccs2)n1-c1ccccc1)N1CCCc2ccccc21 | > 40 µM (inactive) |
| O=S(=O)([N-]c1nc2ccccc2nc1-n1cc[n+](Cc2ccccc2)c1)c1ccc(Br)cc1 | 1.06 µM |
| Fc1cccc(CSc2ncnc3c2oc2ccccc23)c1 | 2.38 µM |
| Cc1ccc2nc(N3CCN(c4cccc(C)c4C)CC3)c3nnnn3c2c1 | 7.32 µM |
| Cc1ccc(C(=O)Nc2cccc(C(F)(F)F)c2)cc1NC(=O)c1nccn1C | 6.88 µM |

| Structure (SMILES) | IC50 |
| --- | --- |
| CC1=NCCN1S(=O)(=O)c1c(C(C)C)cc(C(C)C)cc1C(C)C | > 40 µM (inactive) |
| COc1ccc(C(=O)NCCNc2nc3cc(C)cc(C)c3cc2C#N)nc1 | inactive |
| O=C(Nc1ccc2oc(-c3cccc(F)c3)nc2c1)c1ccccc1F | 2.87 µM |
| Cc1ccc(-n2c(SCC(=O)Nc3cccc(S(=O)(=O)NC4=NCCCCC4)c3)nc3ccccc3c2=O)cc1 | inactive |
| O=C(Nc1nc(=O)c2ccccc2s1)c1ccc(Cl)cc1 | > 40 µM (inactive) |
| CCOC(=O)N1CCC(n2c(SCC(=O)c3ccccc3)nc3ccsc3c2=O)CC1 | 2.26 µM |
| CCc1nnc(NC(=O)c2oc3ccc(Br)cc3c2C)s1 | 6.22 µM |
| CC(C)Cc1nc2sc3c(SCC(N)=O)ncnc3c2c2c1CCC2 | 3.65 µM |
| Cc1cc(C)c(NC(=O)CSc2nc(COc3ccccc3)nc3ccccc23)c(C)c1 | 3.42 µM |
| Cc1nc2nc(SCC(=O)c3ccccc3)[nH]c2cc1Br | > 40 µM (inactive) |
| O=S(=O)(c1ccc2nc(N3CCN(c4ccccc4)CC3)ccc2c1)N1CCCCC1 | inactive |
| Cn1c(SCC(=O)NCc2ccc3c(c2)OCO3)ncc(C(=O)Nc2ccc(F)cc2)c1=O | 3.91 µM |
| COC(=O)c1ccc(NC(=O)c2cn(-c3ccccc3)nc2-c2ccncc2)cc1 | > 40 µM (inactive) |
| O=C(CCn1c(=O)c2cccn2c2cccnc21)NCc1cccc(Cl)c1 | > 40 µM (inactive) |
| COc1ccccc1-c1nc(SCC(=O)N(C)c2ccccc2)c2c(=O)n(C)c(=O)n(C)c2n1 | 3.13 µM |
| C=CCn1c(=NC(=O)c2cccs2)sc2cc(NC(C)=O)ccc21 | inactive |
| COC(=O)c1ccc(NC(=O)c2cc(Cl)ccc2OC)cc1 | inactive |
| COc1ccc2cc(C)c(SCC(=O)Nc3cc(C)on3)nc2c1 | > 40 µM (inactive) |
| Cc1cc(NC(=O)c2cccs2)cc(-c2nc3ncccc3o2)c1O | inactive |
| Oc1ccccc1N=Nc1nc(-c2ccccc2)c(-c2ccccc2)[nH]1 | 3.98 µM |
| Cc1ccc(Cl)cc1N1CCN(S(=O)(=O)c2ccc(-c3ccc(=O)[nH]n3)o2)CC1 | inactive |
| Cn1nnnc1-c1cc(Br)ccc1NC(=O)c1ccccc1 | inactive |
| COc1ccccc1N/C(N)=N/c1nc(CSc2ccc(C)cc2)cc(=O)[nH]1 | 4.19 µM |
| CCC(c1ccc(O)cc1)C(CC)c1ccc(O)cc1 (centres undefined) | inactive |
| COc1ccc2c(c1)c(/C=C/c1cc[n+](C)cc1)cn2C | inactive |
| COc1ccc(Cn2ccc3ccc(-c4ccc5ccn(C(=O)c6cccc(OC)c6)c5c4)cc32)cc1 | > 40 µM (inactive) |

Now from value to compound:

| IC50 | Structure (SMILES) |
| --- | --- |
| 4.36 µM | COc1ccccc1NC(=O)c1cnc(SCC(=O)NCCc2ccccc2)n(C)c1=O |
| 2.78 µM | CCCCNc1ccc2c3c(cccc13)C(=O)N(CCCC)C2=O |
| > 40 µM (inactive) | Cc1c(C#N)c(N)nc2c3c(sc12)NC(=O)CC3c1ccc(Cl)cc1 (centres undefined) |
| 2.83 µM | CC(C)CCN1C(=O)c2cccc3c(N)ccc(c23)C1=O |
| inactive | CCN1C(=O)C(=CC=CN(C)c2ccccc2)SC1=S |
| inactive | Cc1cc(N2CCCC2)ccc1/C=C1\NC(=S)N(C)C1=O |
| 4.19 µM | CC1(Cc2ccccc2OC(F)(F)F)C(=O)Nc2ccc(OC(F)(F)F)cc21 (centres undefined) |
| 3.01 µM | COc1ccc(Sc2nc3ccccc3n3c(C(F)(F)F)nnc23)cc1 |
| 4.29 µM | O=C(c1cccs1)N1C(=O)c2cccc3cccc1c23 |
| 0.518 µM | O=C(CCS(=O)(=O)c1ccccc1)Nc1ccccc1-c1nc2ccccc2s1 |
| 3.45 µM | CCN(CC)c1ccc(/C=C(/C#N)c2nc3ccccc3[nH]2)c(OC(C)C)c1 |
| > 40 µM (inactive) | CCN(CC)C(=O)CSc1nc2cc3c(cc2c(=O)n1Cc1ccc(OC)cc1)OCO3 |
| 7.79 µM | COc1ccc(CCn2c(-c3ccc(OC)cc3)nc3c(c(=O)c4ccccc4n3C)c2=O)cc1 |
| > 40 µM (inactive) | CCCCN(C)C1=CC2=CC(=C(C#N)C#N)CCC2CC1 (centres undefined) |
| 5.25 µM | CC(=O)Nc1ccc(Nc2c3c4c(cccc4n(C)c2=O)C(=O)c2ccccc2-3)cc1 |
| > 40 µM (inactive) | Cc1[nH]nc2nc(SCC(=O)NCCC3=CCCCC3)n(-c3ccc(Br)cc3)c(=N)c12 |
| > 40 µM (inactive) | COc1ccc(C(=O)NC(=S)Nc2ccc3[nH]c(=O)[nH]c3c2)c(OC)c1 |
| 5.3 µM | CCOC(=O)N1CCN(c2ncnc3c2oc2nc(C(C)C)c4c(c23)CCC4)CC1 |
| 3.88 µM | CC(C)(C)c1ccc(C(=O)c2c[nH]c(C(=O)NCc3cccs3)c2)cc1 |
| inactive | COc1ccc(C(=O)Nc2scc(-c3ccc(Cl)cc3Cl)c2C(N)=O)cc1 |
| 4.7 µM | CCC(=O)c1ccc(OCC(=O)Nc2ccccc2C(=O)NC2CC2)cc1 |
| 3.31 µM | CCc1cc2cc3c(cc2nc1SCC(=O)Nc1cc(C)on1)OCO3 |
| 4.05 µM | COc1ccc(C)cc1Nc1nc(-c2ccccc2O)nc2ccccc12 |
| 4.41 µM | Cc1[nH]c2ccccc2c1/C=C/c1cc[n+](C)cc1 |
| 7.93 µM | CSc1nnc2c3cc(F)ccc3n(Cc3ccccc3)c2n1 |
| 7.62 µM | CCc1nnc(NC(=O)CSc2nc3cc4c(cc3cc2C)OCCO4)s1 |

| IC50 | Structure (SMILES) |
| --- | --- |
| inactive | COc1cc(C(=O)Nc2nc(-c3cc(C)ccc3C)c(C)s2)ccc1OCC(=O)Nc1ccc(F)cc1 |
| inactive | COc1ccc(C(=O)COC(=O)c2cc(=O)[nH]c3ccccc23)c(OC)c1 |
| inactive | O=c1sc(N2CCN(c3ccc(F)cc3)CC2)nc2ccsc12 |
| inactive | CCC[C@H]1[C@@H](N(C)Cc2cccs2)CC[C@@]23CCCN2C(=O)CCC[C@@H]13 |
| inactive | Cc1ccc2cc(-c3noc(C4CCCCC4)n3)c(=O)[nH]c2c1 |
| 7.12 µM | CCOc1ccc(-c2nnc3ccc(SCC(=O)Nc4nc5ccc(C)cc5s4)nn23)cc1 |
| 2.4 µM | c1ccc(-c2nc(SCc3nc4ccccc4[nH]3)c3oc4ccccc4c3n2)cc1 |
| 9.31 µM | COc1ccc(/C=C2/SC(=O)N(CCC(=O)Nc3ccccc3)C2=O)cc1OC |
| inactive | COc1cc2cc(C#N)c(SCC(=O)Nc3cc(C)on3)nc2cc1OC |
| > 40 µM (inactive) | O=C(CCCn1c(=S)[nH]c2cc3c(cc2c1=O)OCO3)NCc1cccc(Cl)c1 |
| 7.75 µM | Cc1ccc(C(=O)CSc2nc3ccccc3c(=O)n2-c2ccccc2)s1 |
| 3.13 µM | COc1ccc(Cl)cc1-c1cc(C(=O)Nc2ccc(F)cc2)[nH]n1 |
| > 40 µM (inactive) | COc1ccc(C(=O)Nc2nc(C)c(C(C)=O)s2)cc1S(=O)(=O)N1CCOCC1 |
| 0.544 µM | N#Cc1cccc(Cn2ccc3ccc(-c4ccc5ccn(Cc6cccc(C#N)c6)c5c4)cc32)c1 |
| 4.77 µM | COc1ccccc1NC(=O)c1oc2ccccc2c1NC(=O)c1cc(OC)c(OC)c(OC)c1 |
| 2.43 µM | O=C(NCc1ccco1)c1ccc(Cn2c(=O)c3ccccc3n(Cc3cccc(F)c3)c2=O)cc1 |
| 4.51 µM | CCOC(=O)c1c(-c2ccccc2)csc1NC(=O)c1cc(S(=O)(=O)N2CCOCC2)ccc1C |
| 4.6 µM | COCCn1c(=NC(=O)c2nc3ccccc3s2)sc2cc(S(C)(=O)=O)ccc21 |
| inactive | CC(=O)c1ccc(Nc2ncnc3ccc(Br)cc23)cc1 |
| inactive | COc1ccc(C(=O)Nc2nnc(Cc3cccs3)s2)cc1OC |
| inactive | Cc1ccc(C)c(-n2c(-c3ccc(Br)cc3)csc2=NC(=O)c2ccccc2F)c1 |
| > 40 µM (inactive) | COc1ccccc1-c1ccc2c(c1)C(C)(Cc1cc(Cl)ccc1C(F)(F)F)C(=O)N2 (centres undefined) |
| 5.54 µM | Cc1ccc(N(Cc2cc3cc(C)ccc3[nH]c2=O)C(=O)c2cccs2)cc1 |
| > 40 µM (inactive) | O=C(Nc1cccc(C(F)(F)F)c1)c1cc(Br)cc2c1OCC2 |
| 4.3 µM | O=C(COc1ccccc1)Nc1nc2cc3c(cc2s1)OCCO3 |
